Consider two compounds from patent US20040253268A1, “Biological compositions and methods for treatment of uterine cancer” (priority 2003, published 2004).

Data set [1] relates to uterine cancer cell line CRL-1622. Kind of data set: Tumor growth in 615 strain mouse model of human uterine cancer (Example 6). The data set is classed as in vivo, 615 mice. To be noted: day 31 after tumor inoculation; 30 days dosing; AY/NY 0.3 ml/day oral, MMC 0.8 mg/kg/day s.c. An excerpt: The following example illustrates the benefit of a biological composition of the invention in a 615 strain mouse model of human uterine cancer. The growth of the tumor in the mice was studied.
Murine transplantable uterine cancer type CRL-1622 closely resembles the human uterine cancer pathology. The uterine cancer cell line CRL-1622 can be ordered from the American Type Culture Collection.
(§1) The biological composition comprising 10^8 cells per ml of activated and conditioned yeast cells of the strain Saccharomyces carlsbergensis Hansen strain AS2.605 was prepared by the methods described in Section 5.1 and subsections therein.
The animals used to generate the uterine cancer cells for the experiments were female 615 mice (obtainable from the Chinese Academy of Military Medical Sciences, Beijing, China), 4 to 6 months, having an average body weight of about 20 to 22 gram. About 1.2×10^7 viable tumor cells of the uterine cancer cell line CRL-1 622 (obtainable from the Cancer Institute, Chinese Academy of Medical Sciences, Beijing, China) in about 0.2 ml culture suspension were injected subcutaneously into the animals. […]
The mice received the biological composition, untreated yeast cells, MMC or saline on the same day as the tumor cells were transplanted. […] The weight of the mice and the weight of the tumor were determined by standard techniques.

For data set [2] the test system is unchanged. Kind of data set: Survival in 615 strain mouse model of human uterine cancer (Example 7). The data set is classed as in vivo. Conditions: 2AY/2NY 0.5 ml/day oral; for Number of live animals remaining in the groups after 30 days of treatment: 30 mice per group, 2MMC 1.2 mg/kg/day s.c. The procedure:
The following example illustrates the benefit of a biological composition of the invention in a model of human uterine cancer in a 615 strain mouse. The survival time of mice after tumor injection and treatment was studied.
as §1
The animals were prepared in a similar manner as described in Section 6.1. 7.2 Experimental Design The mice injected with tumor cells were immediately divided into 4 experimental groups of ten mice per group and one control group. The four experimental groups were triplicated (i.e., using a total of 120 mice in the experimental groups). In group 2AY, the mice received 0.5 ml of the biological composition once per day. In group 2NY, the mice received 0.5 ml of the untreated yeast cells once per day. In group 2MMC, the mice were injected subcutaneously with 1.2 mg of mitomycin C (MMC) per kg body weight per day. In group 2CK1, the mice received 0.5 ml of physiological saline once per day.
The mice received the biological composition, untreated yeast cells, MMC or saline on the same day as the tumor cells were transplanted. The mice in group 2CK2 also started receiving saline on the same day as the other four groups. The biological composition, untreated yeast cells and saline were administered orally by a feeding tube and the MMC by subcutaneous injection for 30 consecutive days. The mice were observed over 6 months from the day of tumor inoculation and survival was recorded. The weight of the mice and the weight of the tumor were determined by standard techniques.

Data set [3] deals with uterine cancer cell line HTB-114. Kind of data set: Survival in kun ming mouse model of human uterine cancer (Example 9). It is filed as in vivo. Conditions: 2AY/2NY 0.5 ml/day oral; for Number of live animals remaining in the groups after 30 days of treatment: 30 mice per group, 2VCR 4.5 mg/kg/day i.v. The procedure:
The following example illustrates the benefit of a biological composition of the invention in a kun ming mouse model of human uterine cancer. The survival time of mice after tumor injection and treatment was studied.
The biological composition comprising 10^8 cells per ml of activated and conditioned yeast cells of the strain Saccharomyces cartsbergensis Hansen strain AS2.605 was prepared by the methods described in Section 5.1 and subsections therein.
The animals were prepared in a similar manner as described in Section 8.1.
The mice injected with tumor cells were immediately divided into 4 experimental groups of ten mice per group and one control group. The four experimental groups were triplicated (i.e., using a total of 120 mice in the experimental groups). In group 2AY, the mice received 0.5 ml of the biological composition once per day. In group 2NY, the mice received 0.5 ml of the untreated yeast cells once per day. In group 2VCR, the mice were injected intravenously with 4.5 mg of […] (VCR) per kg body weight per day. In group 2CK1, the mice received 0.5 ml of physiological saline once per day.
The mice received the biological composition, untreated yeast cells, VCR or saline on the same day as the tumor cells were transplanted. The mice in group 2CK2 also started receiving saline on the same day as the other four groups. The biological composition, untreated yeast cells and saline were administered orally by a feeding tube and the VCR by intravenous injection for 30 consecutive days. The mice were observed over 6 months from the day of tumor inoculation and survival was recorded. The weight of the mice and the weight of the tumor were determined by standard techniques.

The test system is the same in data set [4]. Kind of data set: Tumor growth in kun ming mouse model of human uterine cancer (Example 8). It is filed as in vivo. Conditions: day 31 after tumor inoculation; 30 days dosing; AY/NY 0.3 ml/day oral, VCR 3 mg/kg/day i.v.
From the text: The following example illustrates the benefit of a biological composition of the invention in a kun ming mouse model of human uterine cancer. The growth of the tumor in the mice was studied.
Murine transplantable uterine cancer type HTB-114 closely resembles the human uterine cancer pathology. The uterine cancer cell line HTB-114 can be ordered from the American Type Culture Collection.
as §1
The animals used to generate the uterine cancer cells for the experiments were female kun ming mouse (obtainable from the Chinese Academy of Military Medical Sciences, Beijing, China), 5 to 6 months, having an average body weight of about 20 to 22 gram. About 1.2×10^7 viable tumor cells of the uterine cancer cell line HTB-114 (obtainable from the Cancer Institute, Chinese Academy of Medical Sciences, Beijing, China) in about 0.2 ml culture suspension were injected subcutaneously into the animals. […]
The mice received the biological composition, untreated yeast cells, VCR or saline on the same day as the tumor cells were transplanted. […] The weight of the mice and the weight of the tumor were determined by standard techniques.

The mark [5] stands for this setting: 0 month after cessation of treatment.
[6] abbreviates: 1 month after cessation of treatment.
Where [7] appears, read: 2 months after cessation of treatment.
Where [8] appears, read: 3 months after cessation of treatment.
Where [9] appears, read: 4 months after cessation of treatment.
Where [10] appears, read: 5 months after cessation of treatment.
[11] abbreviates: 6 months after cessation of treatment.
The mark [12] stands for this setting: surviving mice after 6 months observation, 2MMC 1.2 mg/kg/day s.c. for 30 days.
The mark [13] stands for this setting: surviving mice after 6 months observation, 2VCR 4.5 mg/kg/day i.v. for 30 days.

As for `CO[C@@]12[C@H](COC(N)=O)C3=C(C(=O)C(C)=C(N)C3=O)N1C[C@@H]1N[C@@H]12` [MMC, mitomycin C], the “mean weight of mice and standard deviation” value is on record as 18.3 ± 3.1 g in data set [1] and “all animals dead” in data set [2] (setting [12]). For the same compound, the results for the “mean weight of tumor nodules and standard deviation” value in data set [1] and in data set [2] (setting [12]) were 3.56 ± 2.32 mg and “all animals dead”, respectively. Moreover, the “Number of live animals remaining in the groups after 30 days of treatment” value (shortened to “Number of live animals remaining”) was found to be 30 in data set [2] (setting [5]); 28 in data set [2] (setting [6]); 26 in data set [2] (setting [7]); 18 in data set [2] (setting [8]); 7 in data set [2] (setting [9]); 0 in data set [2] (setting [10]). The “Number of live animals remaining” value in data set [2] (setting [11]) came out at 0. In data set [2] (2MMC 1.2 mg/kg/day s.c. for 30 days, observed over 6 months), the survival time entry is recorded as “all died during the experiment”.
Turning to `CC[C@]1(O)C[C@@H]2CN(CCc3c([nH]c4ccccc34)[C@@](C(=O)OC)(c3cc4c(cc3OC)N(C)[C@H]3[C@@](O)(C(=O)OC)[C@H](OC(C)=O)[C@]5(CC)C=CCN6CC[C@]43[C@@H]65)C2)C1` [VCR, vinblastine], the “Number of live animals remaining” value in data set [3] (setting [5]) is 30; in data set [3] (setting [6]), 28; in data set [3] (setting [7]) it was 19; in data set [3] (setting [8]), 11; in data set [3] (setting [9]), 3; in data set [3] (setting [10]), 0. Moreover, the “Number of live animals remaining” value in data set [3] (setting [11]) was found to be 0. Besides, the survival time result in data set [3] (2VCR 4.5 mg/kg/day i.v. for 30 days, observed over 6 months) is on record as “all died during the experiment”. The “mean weight of mice and standard deviation” value was “all animals dead” in data set [3] (setting [13]) and 18.3 ± 3.3 g in data set [4]. Moreover, the “mean weight of tumor nodules and standard deviation” value in data set [3] (setting [13]) was “all animals dead”; in data set [4] it was 4.36 ± 2.45 g.
